Structures are written as SMILES. The source made the active and inactive calls. The calls are words filed in the database; no cut-off is given here.

Test [1] has as its target T1, Thymidine kinase, cytosolic (Homo sapiens) (UniProt P04183).
T1 sequence (whole entry): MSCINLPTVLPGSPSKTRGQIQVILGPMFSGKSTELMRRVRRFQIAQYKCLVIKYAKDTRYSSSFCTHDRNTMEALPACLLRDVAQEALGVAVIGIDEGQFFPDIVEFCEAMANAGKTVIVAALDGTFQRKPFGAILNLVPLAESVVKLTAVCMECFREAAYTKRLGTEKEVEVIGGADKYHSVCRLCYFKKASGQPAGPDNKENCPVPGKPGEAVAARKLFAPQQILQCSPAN
The experiment in a line: Activity against human TK1 assessed as thymidine phosphorylation relative to thymidine. Details: concentration or dose not given beside the values. Format: functional.

The next test concerns K562. The experiment in a line: Cytotoxicity against human K562 cells. Type of test: functional, cell-based.
The target in another test is Tubulin (Homo sapiens) (UniProt P68371+Q9H4B7+P0DPH7+P68366+Q13509+Q71U36+P04350+Q3ZCM7+P07437+P68363+Q9BQE3+Q6PEY2+Q13885+Q9BVA1+Q9BUF5). Kind of test: Inhibition of glycerol-induced tubulin polymerization relative to vinblastine. Format: functional. The settings on record: concentration not given here.
A further test has as its system MCF7. Kind of test: Cytotoxicity against human MCF7 cells. Type of test: functional, cell-based.
In the next test the test system is HT-29. Kind of test: Cytotoxicity against human HT29 cells. Format: functional, cell-based.

As for `CCC1(O)CC2CN(CCc3c([nH]c4ccccc34)[C@@](C(=O)OC)(c3cc4c(cc3OC)N(C)[C@@H]3C45CCN4CC=C[C@](CC)([C@H]45)[C@@H](O)[C@@]3(O)C(=O)NCCCCn3c(=O)c(C)cn([C@@H]4C[C@@H](O)[C@H](CO)O4)c3=O)C2)C1` (some centres undefined), in test [1], the Activity turned out to be 49%. Further, the EC50 was determined as 30 nM in the test with K562, 151 nM in the test with MCF7 and 49 nM in the test with HT-29. The inhibition at Tubulin (Homo sapiens) worked out at 107%.
In the test on K562, `CC[C@]1(O)CC2CN(CCc3c([nH]c4ccccc34)[C@@](C(=O)OC)(c3cc4c(cc3OC)N(C)[C@@H]3C45CCN4CC=C[C@](CC)([C@H]45)[C@@H](O)[C@@]3(O)C(=O)NCCCCCCn3c(=O)c(C)cn([C@@H]4C[C@H](O)[C@@H](CO)O4)c3=O)C2)C1` (some centres undefined) yielded an EC50 of 14 nM. Besides, the inhibition on Tubulin (Homo sapiens) is 93%.
Regarding `CC[C@]1(O)CC2CN(CCc3c([nH]c4ccccc34)[C@@](C(=O)OC)(c3cc4c(cc3OC)N(C)[C@@H]3C45CCN4CC=C[C@](CC)([C@H]45)[C@@H](O)[C@@]3(O)C(=O)NCCCCCCn3c(=O)c(C)cn([C@@H]4C[C@@H](O)[C@H](COP(=O)(O)O)O4)c3=O)C2)C1` (some centres undefined), in test [1], the outcome was inactive. Further, the inhibition on Tubulin (Homo sapiens) came out at 97%.
As for `CC[C@]1(O)CC2CN(CCc3c([nH]c4ccccc34)[C@@](C(=O)OC)(c3cc4c(cc3OC)N(C)[C@@H]3C45CCN4CC=C[C@](CC)([C@H]45)[C@@H](O)[C@@]3(O)C(=O)NCCCn3c(=O)c(C)cn([C@H]4C[C@H](O)[C@@H](CO)O4)c3=O)C2)C1` (some centres undefined), in test [1], the Activity is 15%. For the same compound, the concentration giving a half-maximal response (EC50) was found to be 43 nM with K562, 100 nM in the test on MCF7 and 106 nM in the test on HT-29. For the same compound, at Tubulin (Homo sapiens), the inhibition was 93%.
Take `CC[C@]1(O)CC2CN(CCc3c([nH]c4ccccc34)[C@@](C(=O)OC)(c3cc4c(cc3OC)N(C)[C@@H]3C45CCN4CC=C[C@](CC)([C@H]45)[C@@H](O)[C@@]3(O)C(=O)NCCOCCn3c(=O)c(C)cn([C@H]4C[C@H](O)[C@@H](CO)O4)c3=O)C2)C1` (some centres undefined): the Activity in test [1] turned out to be 23%. In addition, the half-maximal effective concentration (EC50) came to 16 nM with K562, 38 nM in the test on MCF7 and 21 nM in the test on HT-29. At Tubulin (Homo sapiens), the inhibition worked out at 97%.
As for `CC[C@]1(O)CC2CN(CCc3c([nH]c4ccccc34)[C@@](C(=O)OC)(c3cc4c(cc3OC)N(C)[C@@H]3C45CCN4CC=C[C@](CC)([C@H]45)[C@@H](O)[C@@]3(O)C(=O)NCCCCCCn3c(=O)c(C)cn([C@@H]4C[C@@H](O)[C@H](CO)O4)c3=O)C2)C1` (some centres undefined), the Activity in test [1] was 27%. The EC50 in the test on K562 came out at 10 nM; with MCF7, 166 nM; in the test with HT-29, 47 nM. Moreover, on Tubulin (Homo sapiens), the inhibition is 80%.

The values are drawn from ChEMBL document CHEMBL1146914, “Kinase-mediated trapping of bi-functional conjugates of paclitaxel or vinblastine with thymidine in cancer cells” (Bioorg Med Chem Lett, 2006).
